# Measurements taken from patent US7122569B2, “Ethylene glycol esters as photoactive agents” (priority 1997, dated 2006).
# Key:
# L1210 cells [1] = assay: Uptake of photosensitizer by L1210 cells (fluorescence of cell lysates); format: cell-based, murine; conditions: 3 μg/ml, 10% fetal bovine serum
# Description: BPD-MA or B-EA6 were incubated at 3 μg/ml in the presence of 10% fetal bovine serum with 10^7/mL of L1210 cells, a murine leukemia cell line. Intracellular content of the photosensitizers was measured by fluorescence of cell lysates at various times. […] The time course of uptake is shown in FIG. 2 as a percentage of cell content at 60 min by which time uptake had reached a maximum in both cases. As shown, B-EA6 is taken up more rapidly and reaches […] of its maximum concentration after only 5 min and reached its maximum uptake within 15 min.
# L1210 cells [2] = assay: Release of photosensitizer from preloaded L1210 cells; format: cell-based, murine; conditions: preloaded at 3 μg/ml for 1 hr, drug-free medium with 10% fetal bovine serum; compared with BPD-MA
# Description: The kinetics of release of these drugs from L1210 cells was measured by preloading the cells at 3 μg/ml for 1 hr and then placing the cells in drug-free medium containing 10% fetal bovine serum. Remaining intracellular drug content was measured at various time points by lysing the cells and measuring fluorescence.
# [3] = In vivo pharmacokinetics, drug content of tissues by fluorescence in tissue extracts; set-up: species or system DBA/2 mice; conditions: 4 mg/kg intravenous
# Description: Either BPD-MA or B-EA6 was administered by intravenous injection into DBA/2 mice at a dose of 4 mg/kg using 3 mice per time point. The drug content of plasma, skin, liver and kidney was determined by fluorescence in the tissue extracts.
# [4] = tested on: M1 rhabdomyosarcoma tumors; assay: PDT bioassay in mouse tumor model, tumor-free on day 7; format: in vivo, DBA/2 mice
# Description: The pharmacokinetics were also determined using an in vivo mouse tumor model. Groups of 10 DBA/2 mice containing M1 rhabdomyosarcoma tumors were injected intravenously with a liposomal formulation of BPD-MA at various dosages of 0.75–1.5 mg/kg. The tumors were irradiated with 690 nm laser light at 50 or 150 J/cm^2 at various times after injection.
# L1210 cells [5] = assay: LD50 / photocytotoxicity on L1210 cells, 9 J/cm^2 broad spectrum light, MTT assay; format: cell-based, murine
# Description: Either B-EA6 or BPD-MA was incubated for 1 hr with L1210 cells at a range of concentrations and exposed to 9 J/cm^2 broad spectrum light. This determination was made in the absence of serum and in the presence of 10% serum.
# The ability of B-EA6 to exert a cytotoxic effect on L1210 cells in vitro was further tested by incubating the cells with B-EA6 at various concentrations for 1 hr in the absence of serum. After excess drug was removed, the cells were exposed to 9 J/cm^2 broad spectrum light (380–750 nm) and cell survival was determined by the MTT assay (Mosmann, T. et al. J Immunol Meth (1983) 65:55–63). The percentage of killed cells was calculated in reference to survival of cells exposed to light only.
# splenocytes = conditions: 3 μg/ml, after an hour of incubation
# Description: The ability of L1210 cells to accumulate B-EA6 was compared to the ability of splenocytes to do so. B-EA6 at 3 μg/ml was incubated with each cell type and the cell content of B-EA6 was determined by fluorescence in cell lysates.
# [6] = tested on: M1 (rhabdomyosarcoma) tumor; assay: Tumor selectivity of PDT in mice bearing subcutaneous M1 tumor; format: in vivo, DBA/2 mice; conditions: 0.75 mg/kg liposomal IV, 15 min, 50 J/cm^2 690 nm
# Description: Mice were administered 0.75 mg/kg of B-EA6 in a liposomal formulation intravenously. After 15 min, a 1 cm area which included a 5 mm diameter tumor was exposed to 50 J/cm^2 of 70 mW light of 690 nm wavelength from an argon-pumped dye laser.
# [7] = tested on: DNFB-induced ear swelling; assay: Contact hypersensitivity (CHS) assay, DNFB ear swelling; format: in vivo, Balb/C mice; conditions: 1 mg/kg liposomal IV
# Description: Balb/C mice (5–8 mice per group) were tested using the delayed skin photosensitivity assay also called the contact hypersensitivity (CHS) assay. The mice were painted in the flank with the sensitizing agent dinitrofluorobenzene (DNFB) and 5 days later, one ear is challenged with DNFB, while the other serves as a control. The swelling is an indicator of immune response. […] The swelling in both cases was only approximately 60% of the that shown in mice without treatment.
# MHC Class I = assay: Low-dose PDT, expression of cell surface antigens by peritoneal macrophages: MHC Class I; format: cell-based, murine; conditions: BPD-MA 2.5 ng/ml, B-EA6 0.5 ng/ml; 690 nm LED 5 J/cm^2, 24 hr later
# Description: (§1) In an additional assay to determine immunomodulation, murine peritoneal macrophages were isolated, purified and activated by recombinant interferon-γ (100 U/ml). […] Expression levels of MHC I, MHC II, CD54, CD80 and CD86 were determined 24 hr later using FITC conjugated antibodies and a cell sorter. The results are shown in Table 4 for B-EA6 at 0.5 ng/ml in comparison to similar experiments using BPD-MA at 2.5 ng/ml. The results in the table are given as a percent of expression as compared to cells treated with light only. As shown, BPD-MA and B-EA6 were both able to reduce expression of MHC II, but not the remaining surface markers. Thus, although B-EA6 has advantageous pharmacokinetics, it retains the immunomodulatory activity of BPD-MA and other compounds of this group.
# MHC Class II = assay: Low-dose PDT, expression of cell surface antigens by peritoneal macrophages: MHC Class II; format: cell-based, murine; conditions: BPD-MA 2.5 ng/ml, B-EA6 0.5 ng/ml; 690 nm LED 5 J/cm^2, 24 hr later
# Description: as §1
# CD54 (ICAM-1) = assay: Low-dose PDT, expression of cell surface antigens by peritoneal macrophages: CD54; format: cell-based, murine; conditions: BPD-MA 2.5 ng/ml, B-EA6 0.5 ng/ml; 690 nm LED 5 J/cm^2, 24 hr later
# Description: as §1
# CD80 (B7-1) = assay: Low-dose PDT, expression of cell surface antigens by peritoneal macrophages: CD80; format: cell-based, murine; conditions: BPD-MA 2.5 ng/ml, B-EA6 0.5 ng/ml; 690 nm LED 5 J/cm^2, 24 hr later
# Description: as §1
# CD86 (B7-2) = assay: Low-dose PDT, expression of cell surface antigens by peritoneal macrophages: CD86; format: cell-based, murine; conditions: BPD-MA 2.5 ng/ml, B-EA6 0.5 ng/ml; 690 nm LED 5 J/cm^2, 24 hr later
# Description: as §1
# [8] = tested on: adjuvant-enhanced arthritis; assay: Arthritis model, adjuvant-enhanced, PDT on days 0, 10, 20; format: in vivo, MRL-Ipr mice; conditions: 0.5 mg/kg liposomal IV, red light 80 J/cm^2 at 1 hr
# Description: MRL-Ipr mice spontaneously develop arthritis; this was enhanced by intradermal injection of Freund's Adjuvant. Various numbers of MRL-Ipr mice were treated with PDT on days 0, 10, and 20 after injection of the adjuvant. […] The mice were observed and symptoms scored every 5 days for 30 days. The results are shown in FIG. 6 in comparison to mice similarly treated with BPD-MA and BPD-MB.
# arterioles and venules = assay: Mouse cremaster muscle model, effect on microvasculature; format: in vivo; conditions: 2 mg/kg IV, 25 J/cm^2 per 5 min
# Description: The mouse cremaster muscle model was used. B-EA6 was administered intravenously at 2 mg/kg and starting at 5 and 15 min postinjection, surgically exposed arterioles and venules were irradiated with light at an intensity of 25 J/cm^2 per 5 min beginning at 5 min and 15 min after injection of the B-EA6. The vessels were measured as red blood column diameter as a percentage of controls.
structure (smiles),measurement,setting,value
C=Cc1c(C)c2cc3nc(cc4[nH]c(cc5nc(cc1[nH]2)C1(C)C5=CC=C(C(=O)OC)C1C(=O)OC)c(C)c4CCC(=O)OCCO)C(CCC(=O)OCCO)=C3C (centres unmarked) [B-EA6],time to maximum uptake,L1210 cells [1],≤ 15 min
same,maximum concentration reached (intracellular content),L1210 cells [1]; 10^7/mL L1210 cells,145.9 ng/10^6 cells
same,initial release from cells,L1210 cells [2],much more rapid
same,accumulation in skin,[3]; first 3 hr,does not
same,T½ (15 min-3 hours) Kidney,[3]; kidney,48 min
same,T½ (15 min-3 hours) Liver,[3]; liver,36 min
same,T½ (15 min-3 hours) Muscle,[3]; muscle,666 min
same,T½ (15 min-3 hours) Plasma,[3]; plasma,36 min
same,"accumulation in plasma, liver or kidney",[3]; relative to 15 min postinjection,neither BPD-MA nor B-EA6 accumulated
same,T½ (15 min-3 hours) Skin,[3]; skin,114 min
same,T½ (15 min-3 hours) Spleen,[3]; spleen,48 min
same,Percent Tumor Free on Day 7,"[4]; 0.75 mg/kg liposomal IV, light 15 min post IV, 50 J/cm^2 690 nm",50%
same,Percent Tumor Free on Day 7,"[4]; 0.75 mg/kg liposomal IV, light 30 min post IV, 50 J/cm^2 690 nm",0%
same,Percent Tumor Free on Day 7,"[4]; 1.0 mg/kg liposomal IV, light 15 min post IV, 50 J/cm^2 690 nm",90%
same,Percent Tumor Free on Day 7,"[4]; 1.0 mg/kg liposomal IV, light 30 min post IV, 50 J/cm^2 690 nm",0%
same,Percent Tumor Free on Day 7,"[4]; 1.5 mg/kg liposomal IV, light 180 min post IV, 150 J/cm^2 690 nm",0%
same,percentage of cells that did not survive,"L1210 cells [5]; 15 ng/ml, no serum, 9 J/cm^2 light (380–750 nm), vs light only",~100%
same,"LD50, 10% serum","L1210 cells [5]; L1210 cells, 1 hr incubation, 9 J/cm^2 broad spectrum light, 10% serum",19.7 ng/mL
same,percentage of killed cells,"L1210 cells [5]; approximately 7 ng/ml, no serum, 9 J/cm^2 light (380–750 nm), vs light only",80%
same,cell content of B-EA6 accumulated,splenocytes,less than 20 ng/10^6 cells
same,effect of PDT on surrounding normal skin,[6],did not affect the surrounding normal skin
same,effect of PDT on tumor,[6],effectively eliminated the tumor
same,ear swelling relative to mice without treatment,[7]; 15 J/cm^2 whole body light,approximately 60%
same,ear swelling relative to mice without treatment,[7]; ambient light,approximately 60%
same,"MHC Class I expression, percent of cells treated with light only",MHC Class I,100.4%
same,"MHC Class II expression, percent of cells treated with light only",MHC Class II,71.8%
same,"CD54 (ICAM-1) expression, percent of cells treated with light only",CD54 (ICAM-1),106.9%
same,"CD80 (B7-1) expression, percent of cells treated with light only",CD80 (B7-1),102.3%
same,"CD86 (B7-2) expression, percent of cells treated with light only",CD86 (B7-2),92.2%
same,"prevention of arthritis symptoms (incidence of clinical symptoms, bimaleolar ankle width)",[8],effective in preventing the sequellae of adjuvant injection
same,vessel closure,arterioles and venules; irradiation started after 15 min,permanent closure
same,vessel closure,arterioles and venules; irradiation started at 5 min,transient vessel closure
